Experimental data: PubChem BioAssay AID256 (DTP/NCI, 2004)
Where “and” joins values, the source holds several entries; their conditions need not be identical. Identical values can stand only once. Toxic doses and inconclusive results are not listed.

Test system: CD2F1 mice, L1210 leukemia ip, survival T/C
Assay: NCI In Vivo Anticancer Drug Screen. Data for tumor model L1210 Leukemia (intraperitoneal) in CD2F1 (CDF1) mice
Conditions: endpoint: mean survival time, higher = longer survival
In short: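 Each value reflects a quotient of treated over vehicle control outcomes in mice with a transplanted tumor.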

O=C(Oc1ccc(OC(=O)c2ccccc2)c2c1C(=O)C(CBr)=C(CBr)C2=O)c1ccccc1
T/C (dose: 0.75 mg/kg/injection, schedule: Q01DX009 (ip), vehicle: water): 93 % of control | T/C (dose: 1.5 mg/kg/injection, schedule: Q01DX009 (ip), vehicle: water): 101 % of control | T/C (dose: 3.0 mg/kg/injection, schedule: Q01DX009 (ip), vehicle: water): 93 % of control and 97 % of control | T/C (dose: 6.0 mg/kg/injection, schedule: Q01DX009 (ip), vehicle: water): 93 % of control and 95 % of control | T/C (dose: 12.0 mg/kg/injection, schedule: Q01DX009 (ip), vehicle: water): 93 % of control | T/C (dose: 12.5 mg/kg/injection, schedule: Q01DX009 (ip), vehicle: water): 86 % of control | T/C (dose: 24.0 mg/kg/injection, schedule: Q01DX009 (ip), vehicle: water): 90 % of control | T/C (dose: 25.0 mg/kg/injection, schedule: Q01DX009 (ip), vehicle: water): 91 % of control | T/C (dose: 50.0 mg/kg/injection, schedule: Q01DX009 (ip), vehicle: water): 87 % of control | T/C (dose: 100.0 mg/kg/injection, schedule: Q01DX009 (ip), vehicle: water): 100 % of control | T/C (dose: 200.0 mg/kg/injection, schedule: Q01DX009 (ip), vehicle: water): 86 % of control

Nc1nncs1
T/C (dose: 1.0 mg/kg/injection, schedule: Q01DX005 (ip), vehicle: water): 94 % of control | T/C (dose: 2.0 mg/kg/injection, schedule: Q01DX005 (ip), vehicle: water): 96 % of control | T/C (dose: 4.0 mg/kg/injection, schedule: Q01DX005 (ip), vehicle: water): 96 % of control | T/C (dose: 8.0 mg/kg/injection, schedule: Q01DX005 (ip), vehicle: water): 98 % of control | T/C (dose: 8.0 mg/kg/injection, schedule: Q03HX008 (ip), vehicle: alkali diluted with saline): 123 % of control | T/C (dose: 8.0 mg/kg/injection, schedule: Q03HX016 (ip), vehicle: alkali diluted with saline): 116 % of control | T/C (dose: 8.0 mg/kg/injection, schedule: Q03HX024 (ip), vehicle: alkali diluted with saline): 152 % of control | T/C (dose: 8.0 mg/kg/injection, schedule: Q03HX024 (ip), vehicle: saline): 153 % of control | T/C (dose: 16.0 mg/kg/injection, schedule: Q01DX005 (ip), vehicle: water): 108 % of control | T/C (dose: 16.0 mg/kg/injection, schedule: Q01DX005 (iv), vehicle: alkali diluted with saline): 110 % of control | T/C (dose: 16.0 mg/kg/injection, schedule: Q01DX009 (oral), vehicle: other): 108 % of control | T/C (dose: 16.0 mg/kg/injection, schedule: Q03HX024 (ip), vehicle: alkali diluted with saline): 194 % of control | T/C (dose: 23.4 mg/kg/injection, schedule: Q04DX003 (ip), vehicle: water): 103 % of control | T/C (dose: 32.0 mg/kg/injection, schedule: Q01DX001 (iv), vehicle: alkali diluted with saline): 107 % of control | T/C (dose: 32.0 mg/kg/injection, schedule: Q01DX009 (ip), vehicle: other): 123 % of control | T/C (dose: 32.0 mg/kg/injection, schedule: Q01DX009 (ip), vehicle: saline with Tween-80): 120 % of control | T/C (dose: 32.0 mg/kg/injection, schedule: Q01DX009 (oral), vehicle: other): 107 % of control | T/C (dose: 32.0 mg/kg/injection, schedule: Q03HX008 (ip), vehicle: saline): 120 % of control | T/C (dose: 32.0 mg/kg/injection, schedule: Q03HX024 (ip), vehicle: saline): 104 % of control | T/C (dose: 32.0 mg/kg/injection, schedule: Q04DX003 (ip), vehicle: alkali diluted with saline): 111 % of control | T/C (dose: 32.0 mg/kg/injection, schedule: Q04DX003 (ip), vehicle: other): 106 % of control | T/C (dose: 39.0 mg/kg/injection, schedule: Q04DX003 (ip), vehicle: water): 117 % of control and 105 % of control | T/C (dose: 50.0 mg/kg/injection, schedule: Q04DX003 (ip), vehicle: water): 106 % of control | T/C (dose: 62.5 mg/kg/injection, schedule: Q04DX003 (ip), vehicle: water): 103 % of control and 107 % of control | T/C (dose: 64.0 mg/kg/injection, schedule: Q01DX001 (ip), vehicle: alkali diluted with saline): 112 % of control | T/C (dose: 64.0 mg/kg/injection, schedule: Q01DX001 (ip), vehicle: other): 109 % of control | T/C (dose: 64.0 mg/kg/injection, schedule: Q01DX001 (iv), vehicle: alkali diluted with saline): 112 % of control | T/C (dose: 64.0 mg/kg/injection, schedule: Q01DX001 (oral), vehicle: alkali diluted with saline): 111 % of control | T/C (dose: 64.0 mg/kg/injection, schedule: Q01DX001 (oral), vehicle: other): 94 % of control | T/C (dose: 64.0 mg/kg/injection, schedule: Q01DX001 (sc), vehicle: alkali diluted with saline): 115 % of control | T/C (dose: 64.0 mg/kg/injection, schedule: Q01DX009 (ip), vehicle: other): 103 % of control | T/C (dose: 64.0 mg/kg/injection, schedule: Q01DX009 (ip), vehicle: saline with Tween-80): 104 % of control and 107 % of control | T/C (dose: 64.0 mg/kg/injection, schedule: Q01DX009 (ip), vehicle: saline): 109 % of control | T/C (dose: 64.0 mg/kg/injection, schedule: Q01DX009 (oral), vehicle: other): 86 % of control | T/C (dose: 64.0 mg/kg/injection, schedule: Q03HX024 (ip), vehicle: alkali diluted with saline): 97 % of control | T/C (dose: 64.0 mg/kg/injection, schedule: Q04DX003 (ip), vehicle: other): 123 % of control | T/C (dose: 64.0 mg/kg/injection, schedule: Q08DX002 (ip), vehicle: alkali diluted with saline): 114 % of control | T/C (dose: 64.0 mg/kg/injection, schedule: Q08DX002 (ip), vehicle: other): 105 % of control | T/C (dose: 65.0 mg/kg/injection, schedule: Q04DX003 (ip), vehicle: water): 123 % of control | T/C (dose: 100.0 mg/kg/injection, schedule: Q04DX003 (ip), vehicle: water): 119 % of control | T/C (dose: 125.0 mg/kg/injection, schedule: Q04DX003 (ip), vehicle: water): 119 % of control | T/C (dose: 128.0 mg/kg/injection, schedule: Q01DX001 (ip), vehicle: other): 119 % of control | T/C (dose: 128.0 mg/kg/injection, schedule: Q01DX001 (iv), vehicle: alkali diluted with saline): 119 % of control | T/C (dose: 128.0 mg/kg/injection, schedule: Q01DX001 (oral), vehicle: other): 104 % of control | T/C (dose: 128.0 mg/kg/injection, schedule: Q01DX001 (sc), vehicle: alkali diluted with saline): 120 % of control | T/C (dose: 128.0 mg/kg/injection, schedule: Q01DX009 (sc), vehicle: alkali diluted with saline): 96 % of control | T/C (dose: 128.0 mg/kg/injection, schedule: Q08DX002 (ip), vehicle: alkali diluted with saline): 124 % of control | T/C (dose: 128.0 mg/kg/injection, schedule: Q08DX002 (ip), vehicle: other): 116 % of control | T/C (dose: 180.0 mg/kg/injection, schedule: Q04DX003 (ip), vehicle: water): 159 % of control | T/C (dose: 200.0 mg/kg/injection, schedule: Q04DX003 (ip), vehicle: water): 124 % of control | T/C (dose: 250.0 mg/kg/injection, schedule: Q04DX003 (ip), vehicle: water): 156 % of control | T/C (dose: 256.0 mg/kg/injection, schedule: Q01DX001 (ip), vehicle: other): 118 % of control | T/C (dose: 256.0 mg/kg/injection, schedule: Q01DX001 (oral), vehicle: other): 108 % of control | T/C (dose: 256.0 mg/kg/injection, schedule: Q01DX005 (iv), vehicle: alkali diluted with saline): 150 % of control | T/C (dose: 256.0 mg/kg/injection, schedule: Q01DX009 (ip), vehicle: alkali diluted with saline): 87 % of control | T/C (dose: 256.0 mg/kg/injection, schedule: Q04DX003 (ip), vehicle: alkali diluted with saline): 163 % of control | T/C (dose: 256.0 mg/kg/injection, schedule: Q04DX003 (ip), vehicle: other): 157 % of control | T/C (dose: 300.0 mg/kg/injection, schedule: Q04DX003 (ip), vehicle: water): 161 % of control and 176 % of control | T/C (dose: 512.0 mg/kg/injection, schedule: Q01DX001 (oral), vehicle: other): 111 % of control | T/C (dose: 512.0 mg/kg/injection, schedule: Q04DX003 (ip), vehicle: alkali diluted with saline): 182 % of control | T/C (dose: 512.0 mg/kg/injection, schedule: Q04DX003 (ip), vehicle: other): 168 % of control | T/C (dose: 512.0 mg/kg/injection, schedule: Q08DX002 (ip), vehicle: alkali diluted with saline): 151 % of control | T/C (dose: 833.0 mg/kg/injection, schedule: Q04DX003 (ip), vehicle: water): 182 % of control | T/C (dose: 1024.0 mg/kg/injection, schedule: Q01DX001 (ip), vehicle: other): 122 % of control | T/C (dose: 1024.0 mg/kg/injection, schedule: Q01DX001 (oral), vehicle: alkali diluted with saline): 117 % of control | T/C (dose: 1024.0 mg/kg/injection, schedule: Q01DX001 (oral), vehicle: other): 109 % of control | T/C (dose: 1024.0 mg/kg/injection, schedule: Q08DX002 (ip), vehicle: alkali diluted with saline): 160 % of control

CC(C)OC(=O)Nc1cc(F)ccc1F
T/C (dose: 100.0 mg/kg/injection, schedule: Q01DX009 (ip), vehicle: other): 97 % of control | T/C (dose: 200.0 mg/kg/injection, schedule: Q01DX009 (ip), vehicle: other): 94 % of control

CNc1nc(N)[nH]c(=O)c1N=O
T/C (dose: 50.0 mg/kg/injection, schedule: Q04DX002 (ip), vehicle: saline with Tween-80): 105 % of control | T/C (dose: 100.0 mg/kg/injection, schedule: Q04DX002 (ip), vehicle: saline with Tween-80): 102 % of control | T/C (dose: 200.0 mg/kg/injection, schedule: Q04DX002 (ip), vehicle: saline with Tween-80): 105 % of control
